Test results from patent US10752640B2, “Compounds active towards bromodomains” (NUEVOLUTION A/S, priority 2014, dated 2020).

How the values were obtained:
BRD4 protein = BRD4 protein (Homo sapiens, UniProt O60885); assay: FRET assay, half maximal inhibitory concentration (IC50); format: binding; settings: BRD4 protein 50 nM, Biotin-H4KAc4 peptide 12.5 nM
In short: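 Acetylated histone H4 peptide binding (biotin-H4KAc4, 12.5 nM final) to BRD4 (50 nM final) detected by TR-FRET between streptavidin cryptate (2.4 nM) and GST-XL665 antibody (10 nM) in KF/BSA. Buffer: HEPES pH 7.5, NaCl, CHAPS. Compound dilutions from 50 μM in 12.5% DMSO were preincubated with protein for 30 min. Variable-slope IC50.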

[1] = molecular target: T1, BRD4(2), second bromodomain of BRD4 (Homo sapiens, UniProt O60885); assay: Bromoscan assay BRD4(2) (DiscoveRx); format: binding; settings: read-out: BromoScan BRD4_2 Kd/nM
T1 construct: BRD4(2) for the second bromodomain of BRD4; purchased DiscoveRx Corporation (assay service); host or cells: T7 phage grown in an E. coli host derived from the BL21 strain
Experimental: (§1) Bromoscan assays were run by DiscoveRx Corporation. The relevant assay names are BRD4(1) for the first bromodomain of BRD4 and BRD4(2) for the second bromodomain of BRD4. Further Bromoscan assays covering other bromodomains could be employed to establish the selectivity profile of a compound of interest. To run the Bromoscan assay, a T7 phage strain displaying the relevant bromodomain was grown in parallel in 24-well blocks in an E. coli host derived from the BL21 strain. E. coli were grown to log-phase and infected with T7 phage from a frozen stock (multiplicity of infection=0.4) and incubated with shaking at 32° C. until lysis (90-150 minutes). The lysates were centrifuged (5,000×g) and filtered (0.2 μm) to remove cell debris. Streptavidin-coated magnetic beads were treated with biotinylated small molecule or acetylated peptide ligands for 30 minutes at room temperature to generate affinity resins for bromodomain assays. The liganded beads were blocked with excess biotin and washed with blocking buffer (SeaBlock (Pierce), 1% BSA (bovine serum albumin), 0.05% Tween 20, 1 mM DTT (dithiothreitol)) to remove unbound ligand and to reduce non-specific phage binding. Binding reactions were assembled by combining bromodomains, liganded affinity beads, and test compounds in 1× binding buffer (17% SeaBlock, 0.33×PBS, 0.04% Tween 20, 0.02% BSA, 0.004% Sodium azide, 7.4 mM DTT). Test compounds were prepared as 1000× stocks in 100% DMSO and subsequently diluted 1:10 in monoethylene glycol (MEG) to create stocks at 100× the screening concentration (resulting stock solution is 10% DMSO/90% MEG). The compounds were then diluted directly into the assays such that the final concentration of DMSO and MEG were 0.1% and 0.9%, respectively. All reactions were performed in polystyrene 96-well plates in a final volume of 0.135 ml. The assay plates were incubated at room temperature with shaking for 1 hour and the affinity beads were washed with wash buffer (1×PBS, 0.05% Tween 20). The beads were then re-suspended in elution buffer (lx PBS, 0.05% Tween 20, 2 μM nonbiotinylated affinity ligand) and incubated at room temperature with shaking for 30 minutes. The bromodomain concentration in the eluates was measured by qPCR (quantitative real-time polymerase chain reaction).

IL-12p40 = assay: Cytokine release inhibition assay: LPS-induced cytokine release from human PBMCs; format: cell-based; settings: PBMC, LPS 1 ng/mL, 18 h, read-out: LPS IC50 IL12p40 μM
Experimental: Cytokine release inhibition assay: LPS-induced cytokine release from human peripheral blood mononuclear cells (PBMCs)
200,000 PBMCs were seeded per well of a 96-well plate in 160 μL of medium. Afterwards, 20 μL of ten times concentrated working dilutions of compound or DMSO control were added per well. Cells were pre-incubated with compounds for 1 h at 37° C., 5% CO2, 95% humidity and 20 μL of ten times concentrated LPS was added to cells (Sigma L4391, final concentration 1 ng/mL). Following 18 h incubation at 37° C., 5% CO2, 95% humidity, plates were centrifuged for 10 minutes at 300×g. 150 μL of supernatants were collected for IL-12p40 determination. The concentration of IL-12p40 in supernatants was determined by sandwich ELISA (enzyme-linked immunosorbent assay) using capture and detection antibodies according to the manufacturer's instructions (R&D Systems DY1240). Data can be analyzed using GraphPad Prism, and IC50 data can be obtained using non-linear regression curve fit using log(compound) vs response (variable slope).

[2] = molecular target: T2, BRD4(1), first bromodomain of BRD4 (Homo sapiens, UniProt O60885); assay: Bromoscan assay BRD4(1) (DiscoveRx); format: binding; settings: for Kd: first bromodomain of BRD4, read-out: BromoScan BRD4_1 Kd/nM; for BromoScan BRD4_2/1: ratio of Kd BRD4_2 to BRD4_1, selectivity for BRD4_1 over BRD4_2
T2 construct: BRD4(1) for the first bromodomain of BRD4; purchased DiscoveRx Corporation (assay service); host or cells: T7 phage grown in an E. coli host derived from the BL21 strain
Experimental: as §1

[3] = A Further List of Classification

IC50 (BRD4 protein; [3]) [nM]	SMILES	further results
	Cc1cc(O)nc2ccc(NC(=O)c3cc(C(C)O)ncc3N3CCCC3)cc12 (centres unmarked) [Compound-43]	IC50 (BRD4 protein; List of Classification): < 200 nM; Kd [1]: 79 nM; IC50 (IL-12p40): 400 nM; Kd [2]: 2.4 nM; BromoScan BRD4_2/1 [2]: 32.9
	Cc1cc2nc(O)cc(C)c2cc1NC(=O)c1cc(S(=O)(=O)N(C)C)ccc1N1CCOCC1 [Compound-99, 5-(dimethylsulfamoyl)-N-(2-hydroxy-4,7-dimethyl-6-quinolyl)-2-morpholino-benzamide]	IC50 (BRD4 protein; List of Classification): < 200 nM; Kd [1]: 5600 nM; IC50 (IL-12p40): 400 nM; Kd [2]: 12 nM; BromoScan BRD4_2/1 [2]: 466.7
	Cc1cc(O)nc2ccc(NC(=O)c3cccnc3N3CCOCC3)cc12 [Compound-128, N-(2-hydroxy-4-methyl-6-quinolyl)-2-morpholino-pyridine-3-carboxamide]	IC50 (BRD4 protein; List of Classification): < 200 nM; Kd [1]: 2500 nM; IC50 (IL-12p40): 300 nM; Kd [2]: 15 nM; BromoScan BRD4_2/1 [2]: 166.7
< 200	Cc1cc(O)nc2ccc(NC(=O)c3cc(CN4CCCN(C)CC4)ccc3N3CCCC3)cc12 [S87, N-(2-hydroxy-4-methyl-6-quinolyl)-5-[(4-methyl-1,4-diazepan-1-yl)methyl]-2-pyrrolidin-1-yl-benzamide]	
< 200	COC1CCN(Cc2ccc(N3CCCC3)c(C(=O)Nc3ccc4nc(O)cc(C)c4c3)c2)C1 (centres unmarked) [S88, N-(2-hydroxy-4-methyl-6-quinolyl)-5-[(3-methoxypyrrolidin-1-yl)methyl]-2-pyrrolidin-1-yl-benzamide]	
< 200	Cc1cc(O)nc2ccc(NC(=O)c3cc(CN4CC(O)C4)ccc3N3CCCC3)cc12 [S89, 5-[(3-hydroxyazetidin-1-yl)methyl]-N-(2-hydroxy-4-methyl-6-quinolyl)-2-pyrrolidin-1-yl-benzamide]	
< 200	COCC1CN(Cc2ccc(N3CCCC3)c(C(=O)Nc3ccc4nc(O)cc(C)c4c3)c2)C1 [S90, N-(2-hydroxy-4-methyl-6-quinolyl)-5-[[3-(methoxymethyl)azetidin-1-yl]methyl]-2-pyrrolidin-1-yl-benzamide]	
< 200	COCC1CCCN(Cc2ccc(N3CCCC3)c(C(=O)Nc3ccc4nc(O)cc(C)c4c3)c2)C1 (centres unmarked) [S91, N-(2-hydroxy-4-methyl-6-quinolyl)-5-[[3-(methoxymethyl)-1-piperidyl]methyl]-2-pyrrolidin-1-yl-benzamide]	
< 200	Cc1cc(O)nc2ccc(NC(=O)c3cc(CN4CCOCC4)cnc3N3CCC(C)C3)cc12 (centres unmarked) [S93, N-(2-hydroxy-4-methyl-6-quinolyl)-2-(3-methylpyrrolidin-1-yl)-5-(morpholinomethyl)pyridine-3-carboxamide]	
200 to 500	Cc1cc(O)nc2ccc(NC(=O)c3cc(CN4CCOCC4)cnc3N3CCCC3C)cc12 (centres unmarked) [S94, N-(2-hydroxy-4-methyl-6-quinolyl)-2-(2-methylpyrrolidin-1-yl)-5-(morpholinomethyl)pyridine-3-carboxamide]	
200 to 500	Cc1cc(O)nc2ccc(NC(=O)c3cc(CN4CCOCC4)cnc3N3CCC(C)(F)C3)cc12 (centres unmarked) [S97, 2-(3-fluoro-3-methyl-pyrrolidin-1-yl)-N-(2-hydroxy-4-methyl-6-quinolyl)-5-(morpholinomethyl)pyridine-3-carboxamide]	
500 to 1000	Cc1cc(O)nc2ccc(NC(=O)c3cc(CN4CCOCC4)cnc3N3CCC(C(N)=O)C3)cc12 (centres unmarked) [S98, 2-(3-carbamoylpyrrolidin-1-yl)-N-(2-hydroxy-4-methyl-6-quinolyl)-5-(morpholinomethyl)pyridine-3-carboxamide]	
1000 to 10000	Cc1cc(O)nc2ccc(NC(=O)c3cc(CN4CCOCC4)cnc3N3CCC(CC(C)C)C3)cc12 (centres unmarked) [S101, N-(2-hydroxy-4-methyl-6-quinolyl)-2-(3-isobutylpyrrolidin-1-yl)-5-(morpholinomethyl)pyridine-3-carboxamide]	
1000 to 10000	Cc1cc(O)nc2ccc(NC(=O)c3cc(CN4CCOCC4)cnc3N3CCC(N4CCCC4)C3)cc12 (centres unmarked) [S107, N-(2-hydroxy-4-methyl-6-quinolyl)-5-(morpholinomethyl)-2-(3-pyrrolidin-1-ylpyrrolidin-1-yl)pyridine-3-carboxamide]	
500 to 1000	Cc1cc(O)nc2ccc(NC(=O)c3cc(CN4CCOCC4)cnc3N3CCCC3C(=O)N(C)C)cc12 (centres unmarked) [S109, 2-[2-(dimethylcarbamoyl)pyrrolidin-1-yl]-N-(2-hydroxy-4-methyl-6-quinolyl)-5-(morpholinomethyl)pyridine-3-carboxamide]	
500 to 1000	Cc1cc(O)nc2ccc(NC(=O)c3cc(CN4CCOCC4)cnc3N3CCC(c4ccncc4)C3)cc12 (centres unmarked) [S111, N-(2-hydroxy-4-methyl-6-quinolyl)-5-(morpholinomethyl)-2-[3-(4-pyridyl)pyrrolidin-1-yl]pyridine-3-carboxamide]	
> 10000	Cc1cc(O)nc2ccc(NC(=O)c3cc(CN4CCOCC4)cnc3N3CCOC(CO)C3)cc12 (centres unmarked) [S114, 2-[2-(hydroxymethyl)morpholin-4-yl]-N-(2-hydroxy-4-methyl-6-quinolyl)-5-(morpholinomethyl)pyridine-3-carboxamide]	
> 10000	Cc1cc(O)nc2ccc(NC(=O)c3cc(CN4CCOCC4)cnc3N3CC(CO)OCC3C)cc12 (centres unmarked) [S115, 2-[2-(hydroxymethyl)-5-methyl-morpholin-4-yl]-N-(2-hydroxy-4-methyl-6-quinolyl)-5-(morpholinomethyl)pyridine-3-carboxamide]	
> 10000	Cc1cc(O)nc2ccc(NC(=O)c3cc(CN4CCOCC4)cnc3N3CCOC(CN(C)C)C3)cc12 (centres unmarked) [S117, 2-[2-(dimethylaminomethyl)morpholin-4-yl]-N-(2-hydroxy-4-methyl-6-quinolyl)-5-(morpholinomethyl)pyridine-3-carboxamide]	
> 10000	Cc1cc(O)nc2ccc(NC(=O)c3cc(CN4CCOCC4)cnc3N3CCC(CO)C3)cc12 (centres unmarked) [S118, 2-[3-(hydroxymethyl)pyrrolidin-1-yl]-N-(2-hydroxy-4-methyl-6-quinolyl)-5-(morpholinomethyl)pyridine-3-carboxamide]	
